Measurements as given in patent US20210382058A1, “PATIENT SELECTION FOR TREATMENT OF MYC POSITIVE CANCERS WITH INDENOISOQUINOLINES” (Purdue Research Foundation, priority 2020, published 2021).
Where two headings read alike, the source gives them in different places.

Tests used:
NCI-60 cancer cell lines = assay: NCI-60 cancer cell line drug screen (GI50, MGM); assay type: cell-based, human; conditions: Homo sapiens; for GI50: read-out: Antiproliferative Activities [GI50 (μM)]
Procedure: Cancer cells were incubated with the test compounds at five concentrations ranging from 100 μM to 10 nM for 48 h. […] The approximate average of GI50 values across the entire panel of NCI-60 cancer cell lines for each compound was recorded as the MGM value.

[1] = test system: MYC protein expression in MCF-7 breast cancer cells; assay: Western blotting of MYC protein level in MCF-7 cells; assay type: cell-based, human; conditions: Homo sapiens, MCF7; western blotting, MCF-7 cells, 0.5, 1, 2, and 4 μM, 24 hours; read-out: MYC Inhibition
Procedure, shortened: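 Immunoblotting with ECL detection quantified MYC, with GAPDH (1:2000) as reference and anti-MYC at 1:1000.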

human topoisomerase I = molecular target: T1, human topoisomerase I (Homo sapiens, UniProt P11387); conditions: relative topoisomerase I inhibition levels, previously determined, six levels (0 - 5, +++++ = 5); cited from earlier work
T1 sequence (P11387 1-765): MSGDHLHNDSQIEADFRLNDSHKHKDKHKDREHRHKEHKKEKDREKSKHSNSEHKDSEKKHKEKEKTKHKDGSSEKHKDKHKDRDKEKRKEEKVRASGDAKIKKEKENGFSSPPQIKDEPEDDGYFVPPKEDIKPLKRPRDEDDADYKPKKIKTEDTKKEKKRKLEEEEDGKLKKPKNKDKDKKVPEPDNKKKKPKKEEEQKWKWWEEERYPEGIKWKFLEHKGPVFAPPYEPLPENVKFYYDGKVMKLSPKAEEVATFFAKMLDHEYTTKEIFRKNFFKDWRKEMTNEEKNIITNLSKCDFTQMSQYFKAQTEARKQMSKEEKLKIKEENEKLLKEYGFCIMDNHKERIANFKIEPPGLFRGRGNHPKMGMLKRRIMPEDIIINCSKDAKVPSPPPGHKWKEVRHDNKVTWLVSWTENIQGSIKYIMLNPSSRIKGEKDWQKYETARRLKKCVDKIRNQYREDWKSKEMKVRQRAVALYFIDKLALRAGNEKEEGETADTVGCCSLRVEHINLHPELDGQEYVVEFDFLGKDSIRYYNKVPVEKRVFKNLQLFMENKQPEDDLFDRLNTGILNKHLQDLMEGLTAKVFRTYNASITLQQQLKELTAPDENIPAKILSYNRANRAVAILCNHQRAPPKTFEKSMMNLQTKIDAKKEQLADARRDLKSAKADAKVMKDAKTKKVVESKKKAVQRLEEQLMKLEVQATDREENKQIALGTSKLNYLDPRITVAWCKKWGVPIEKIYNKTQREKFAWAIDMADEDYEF

Structure (SMILES): COc1cc2c(cc1O)-c1c(c3ccc([N+](=O)[O-])cc3c(=O)n1CCCn1ccnc1)C2=O [Compound 37]
- GI50 (NCI-60 cancer cell lines; 786-0, Renal Cancer, 786-0): 0.33 µM
- GI50 (NCI-60 cancer cell lines; ACHN, Renal Cancer, ACHN): 0.31 µM
- GI50 (NCI-60 cancer cell lines; BT-549, Breast Cancer, BT-549): 0.35 µM
- GI50 (NCI-60 cancer cell lines; CAKI-1, Renal Cancer, CAKI-1): 0.22 µM
- GI50 (NCI-60 cancer cell lines; CCRF-CEM, Leukemia, CCRF-CEM): 0.66 µM
- GI50 (NCI-60 cancer cell lines; COLO 205, Colon Cancer, COLO 205): 7.9 µM
- GI50 (NCI-60 cancer cell lines; DU-145, Prostate Cancer, DU-145): 0.33 µM
- GI50 (NCI-60 cancer cell lines; HCC 2998, Colon Cancer, HCC-2998): 37.1 µM
- GI50 (NCI-60 cancer cell lines; HCT-15, Colon Cancer, HCT-15): > 100 µM
- GI50 (NCI-60 cancer cell lines; HCT-116, Colon Cancer, HCT-116): 0.74 µM
- GI50 (NCI-60 cancer cell lines; HL-60, Leukemia, HL-60(TB)): 0.59 µM
- GI50 (NCI-60 cancer cell lines; HOP-62, Non-Small Cell Lung Cancer, HOP-62): 0.59 µM
- GI50 (NCI-60 cancer cell lines; HOP-92, Non-Small Cell Lung Cancer, HOP-92): 13.6 µM
- GI50 (NCI-60 cancer cell lines; HT-29, Colon Cancer, HT29): 4.08 µM
- GI50 (NCI-60 cancer cell lines; Hs-578T, Breast Cancer, HS 578T): > 100 µM
- GI50 (NCI-60 cancer cell lines; IGROV-1, Ovarian Cancer, IGROV1): 11.3 µM
- GI50 (NCI-60 cancer cell lines; K562, Leukemia, K-562): 2.25 µM
- GI50 (NCI-60 cancer cell lines; KM12, Colon Cancer, KM12): 9.39 µM
- GI50 (NCI-60 cancer cell lines; LOX IMVI, Melanoma, LOX IMVI): 0.3 µM
- GI50 (NCI-60 cancer cell lines; Leukemia, SR): 0.03 µM
- GI50 (NCI-60 cancer cell lines; MCF7, Breast Cancer, MCF7): 0.08 µM
- GI50 (NCI-60 cancer cell lines; MDA-MB-231, Breast Cancer, MDA-MB-231/ATCC): 18.1 µM
- GI50 (NCI-60 cancer cell lines; MDA-MB-435, Melanoma, MDA-MB-435): 2.84 µM
- GI50 (NCI-60 cancer cell lines; MOLT-4, Leukemia, MOLT-4): 0.24 µM
- GI50 (NCI-60 cancer cell lines; Malme-3M, Melanoma, MALME-3M): 1.79 µM
- GI50 (NCI-60 cancer cell lines; NCI-H23, Non-Small Cell Lung Cancer, NCI-H23): 0.68 µM
- GI50 (NCI-60 cancer cell lines; NCI-H322M, Non-Small Cell Lung Cancer, NCI-H322M): 72.6 µM
- GI50 (NCI-60 cancer cell lines; NCI-H460, Non-Small Cell Lung Cancer, NCI-H460): 0.24 µM
- GI50 (NCI-60 cancer cell lines; NCI-H522, Non-Small Cell Lung Cancer, NCI-H522): 0.1 µM
- GI50 (NCI-60 cancer cell lines; OVCAR-3, Ovarian Cancer, OVCAR-3): 1.35 µM
- GI50 (NCI-60 cancer cell lines; OVCAR-4, Ovarian Cancer, OVCAR-4): 1.41 µM
- GI50 (NCI-60 cancer cell lines; OVCAR-5, Ovarian Cancer, OVCAR-5): > 100 µM
- GI50 (NCI-60 cancer cell lines; OVCAR-8, Ovarian Cancer, OVCAR-8): 0.89 µM
- GI50 (NCI-60 cancer cell lines; Ovarian Cancer, NCl/ADR-RES): > 100 µM
- GI50 (NCI-60 cancer cell lines; Prostate Cancer, PC-3): 7.22 µM
- GI50 (NCI-60 cancer cell lines; RPMI-8226, Leukemia, RPMI-8226): 0.7 µM
- GI50 (NCI-60 cancer cell lines; RXF 393, Renal Cancer, RXF 393): 1.35 µM
- GI50 (NCI-60 cancer cell lines; SF-268, CNS Cancer, SF-268): 0.27 µM
- GI50 (NCI-60 cancer cell lines; SF-295, CNS Cancer, SF-295): 0.33 µM
- GI50 (NCI-60 cancer cell lines; SF-539, CNS Cancer, SF-539): 0.37 µM
- GI50 (NCI-60 cancer cell lines; SK-MEL-2, Melanoma, SK-MEL-2): 30.8 µM
- GI50 (NCI-60 cancer cell lines; SK-MEL-5, Melanoma, SK-MEL-5): 1.67 µM
- GI50 (NCI-60 cancer cell lines; SK-MEL-28, Melanoma, SK-MEL-28): 16.4 µM
- GI50 (NCI-60 cancer cell lines; SK-OV-3, Ovarian Cancer, SK-OV-3): 0.56 µM
- GI50 (NCI-60 cancer cell lines; SN12C, Renal Cancer, SN12C): 0.42 µM
- GI50 (NCI-60 cancer cell lines; SNB-19, CNS Cancer, SNB-19): 12.8 µM
- GI50 (NCI-60 cancer cell lines; SNB-75, CNS Cancer, SNB-75): 2.97 µM
- GI50 (NCI-60 cancer cell lines; SW-620, Colon Cancer, SW-620): 0.81 µM
- GI50 (NCI-60 cancer cell lines; T47D, Breast Cancer, T-47D): 12 µM
- GI50 (NCI-60 cancer cell lines; TK-10, Renal Cancer, TK-10): 2.54 µM
- GI50 (NCI-60 cancer cell lines; U-251, CNS Cancer, U251): 0.27 µM
- GI50 (NCI-60 cancer cell lines; UACC-62, Melanoma, UACC-62): 0.21 µM
- GI50 (NCI-60 cancer cell lines; UACC-257, Melanoma, UACC-257): 25.3 µM
- mean GI50 across NCI-60 panel (MGM) (NCI-60 cancer cell lines; average of GI50 values across the entire panel of NCI-60 cancer cell lines): 1860 nM
- minimal effective concentration [1]: 0.5 to 1 µM
- Top1 Inhibiton (human topoisomerase I): ++ (medium inhibition, ++, MYC expression inhibited at 2.0 μM, or no clear dose-dependent MYC inhibition)
